{"source": "patent US20030189958A1", "about": "(priority 2000, published 2003)", "key": {"Phytophthora infestans": {"test_system": "Phytophthora infestans", "assay_type": "in vivo", "settings": "solo compound"}, "Plasmopara viticola": {"test_system": "Plasmopara viticola", "assay": "Activity against Plasmopara viticola on grape (cv Gutedel) leaf discs (Example B-2)", "settings": "solo compound", "text": "The action to be expected E for a given active ingredient combination obeys the so-called COLBY formula and can be calculated as follows (COLBY, S. R. “Calculating synergistic and antagonistic responses of herbicide combination”. Weeds, Vol. 15, pages 20-22; 1967):\nAccording to COLBY, the expected (additive) action of active ingredients A)+B) using p+q ppm of active ingredient is [formula]\nIf the action actually observed (O) is greater than the expected action (E), then the action of the combination is super-additive, i.e. there is a synergistic effect. In mathematical terms the synergism factor SF corresponds to O/E. In the agricultural practice an SF of ≧1.2 indicates significant improvement over the purely complementary addition of activities (expected activity), while an SF of ≦0.9 in the practical application routine signals a loss of activity compared to the expected activity.\nThe efficacy of the mixtures against Plasmopara viticola may be determined in micro scale on grape leaf discs in 24-well plates (repeated on 4 discs per variation). […] The inoculation is done by spraying the sporangial suspension (70 000 sp/ml) on the lower leaf side. The infected (sporulating) area of each leaf disc is measured 7-8 days after incubation (under standard conditions in a climatic chamber +18° C., 12 hours day/night cycle) as a %-value of the total leaf disc area. The activity is calculated as a %-value relative to the disease rate on fully infected, untreated grape leave discs. The expected fungicide interactions of the components in the mixtures (E-values) are calculated according to the method of Colby."}}, "note": "Where two headings read alike, the source gives them in different places."}
{"compound": "O=[N+]([O-])c1cc(C(F)(F)F)c(Cl)c([N+](=O)[O-])c1Nc1ncc(C(F)(F)F)cc1Cl", "note": "[III, fluazinam]", "values": [{"measurement": "observed activity (O in %)", "setting": "Phytophthora infestans; 0.025 ppm", "value": 0, "unit": "%"}, {"measurement": "observed activity (O in %)", "setting": "Phytophthora infestans; 0.05 ppm", "value": 0, "unit": "%"}, {"measurement": "observed activity (O in %)", "setting": "Phytophthora infestans; 0.5 ppm", "value": 29, "unit": "%"}]}
{"compound": "COCC(=O)N(c1c(C)cccc1C)[C@H](C)C(=O)OC", "note": "[IIa, metalaxyl-M]", "values": [{"measurement": "observed activity (O in %)", "setting": "Plasmopara viticola; 0.025 ppm", "value": 3, "unit": "%"}, {"measurement": "observed activity (O in %)", "setting": "Plasmopara viticola; 0.05 ppm", "value": 5, "unit": "%"}, {"measurement": "observed activity (O in %)", "setting": "Plasmopara viticola; 0.1 ppm", "value": 9, "unit": "%"}]}
{"compound": "COc1ccc(C(=CC(=O)N2CCOCC2)c2ccc(Cl)cc2)cc1OC", "note": "[IX, dimethomorph]", "values": [{"measurement": "observed activity (O in %)", "setting": "Plasmopara viticola; 0.01 ppm", "value": 0, "unit": "%"}, {"measurement": "observed activity (O in %)", "setting": "Plasmopara viticola; 0.05 ppm", "value": 14, "unit": "%"}, {"measurement": "observed activity (O in %)", "setting": "Plasmopara viticola; 1 ppm", "value": 62, "unit": "%"}]}
{"compound": "N#Cc1c(Cl)c(Cl)c(Cl)c(C#N)c1Cl", "note": "[V, chlorothalonil]", "values": [{"measurement": "observed activity (O in %)", "setting": "Phytophthora infestans; 0.5 ppm", "value": 0, "unit": "%"}]}
{"compound": "CO/C=C(/C(=O)OC)c1ccccc1Oc1cc(Oc2ccccc2C#N)ncn1", "note": "[VIa, azoxystrobin]", "values": [{"measurement": "observed activity (O in %)", "setting": "Plasmopara viticola; 0.01 ppm", "value": 0, "unit": "%"}]}
{"compound": "CCNC(=O)NC(=O)C(C#N)=NOC", "note": "[XI, cymoxanil]", "values": [{"measurement": "observed activity (O in %)", "setting": "Plasmopara viticola; 0.01 ppm", "value": 0, "unit": "%"}, {"measurement": "observed activity (O in %)", "setting": "Plasmopara viticola; 0.025 ppm", "value": 8, "unit": "%"}]}
{"compound": "mancozeb [IV]", "values": [{"measurement": "observed activity (O in %)", "setting": "Plasmopara viticola; 0.25 ppm", "value": 3, "unit": "%"}, {"measurement": "observed activity (O in %)", "setting": "Plasmopara viticola; 0.5 ppm", "value": 15, "unit": "%"}]}
